Laboratory results taken from the supplement of paper PMC11061612.

What was measured:
[1] = tested on: SAS (Oral Cavity Carcinoma); assay: combination Emax (second highest fraction inhibited in the dose matrix, 72 h); higher = more inhibition; extreme values may be limits of the assay
In short: (§1)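 Cell lines grown in DMEM/F12 or RPMI with 10% FBS were plated in 1536-well plates and held 24 hours at 37°C, 5% CO2 before 72 hours of exposure to two-drug dose matrices, with DMSO typically at 0.2%. CellTiter-Glo 2.0 luminescence gave viability, which was converted to inhibition. Vehicle wells were set to 0 and blank wells to 1. Combination Emax is the second-highest inhibition in the matrix, and Bliss excess is the observed combination effect minus the expected EA + EB − EA·EB, where EA and EB are the single-agent effects.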

A673 (Ewing's Sarcoma) = assay: as above
In short: as §1

[2] = tested on: Hs-746T (Gastric Carcinoma); assay: as above
In short: as §1

[3] = tested on: OVCAR-5 (Ovarian Carcinoma); assay: as above
In short: as §1

[4] = tested on: MHH-CALL-2 (B-Lymphoblastic Leukemia); assay: as above
In short: as §1

GAMG (Glioblastoma) = assay: Bliss excess, mean over the matrix (fraction); higher = more synergy
In short: as §1

[5] = tested on: SAS (Oral Cavity Carcinoma); assay: as above
In short: as §1

[6] = tested on: LNZTA3WT4 (Low Grade Glioma); assay: as above
In short: as §1

[7] = tested on: SNU-16 (Gastric Carcinoma); assay: as above
In short: as §1

[8] = tested on: HeLa (Cervical Carcinoma); assay: as above
In short: as §1

[9] = tested on: TGBC1TKB (Biliary Tract Carcinoma); assay: as above
In short: as §1

[10] = tested on: NUGC-4 (Gastric Carcinoma); assay: as above
In short: as §1

[11] = tested on: Detroit562 (Head and Neck Carcinoma); assay: as above
In short: as §1

BE2-M17 (Neuroblastoma) = assay: as above
In short: as §1

CAL-72 (Osteosarcoma) = assay: as above
In short: as §1

[12] = tested on: LS-123 (Colorectal Carcinoma); assay: as above
In short: as §1

EW-11 (Ewing's Sarcoma) = assay: as above
In short: as §1

[13] = tested on: MHH-CALL-2 (B-Lymphoblastic Leukemia); assay: as above
In short: as §1

[14] = tested on: KMRC-20 (Kidney Carcinoma); assay: as above
In short: as §1

NCI-H2052 (Mesothelioma) = assay: as above
In short: as §1
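Throughout, for Bliss excess, mean over the matrix: after 72 h of two-drug dosing.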

SMILES	combination Emax [1]	combination Emax (A673 (Ewing's Sarcoma))	combination Emax [2]	combination Emax [3]	combination Emax [4]	Bliss excess (GAMG (Glioblastoma))	Bliss excess [5]	Bliss excess [6]	Bliss excess [7]	Bliss excess [8]	Bliss excess [9]	Bliss excess [10]	Bliss excess [11]	Bliss excess (BE2-M17 (Neuroblastoma))	Bliss excess (CAL-72 (Osteosarcoma))	Bliss excess [12]	Bliss excess (EW-11 (Ewing's Sarcoma))	Bliss excess [13]	Bliss excess [14]	Bliss excess (NCI-H2052 (Mesothelioma))
NC1(C(=O)N[C@@H](CCO)c2ccc(Cl)cc2)CCN(c2ncnc3[nH]ccc23)CC1 [Capivasertib] + CC(C)n1c(=O)n(C)c2cnc3cc(F)c(-c4ccc(OCCCN5CCCCC5)nc4)cc3c21 [AZD1390] (first compound max 10 µM, 7x7, partner max 0.3 µM)	0.26	0.292	0.332	0.32	0.231	-0.0455	-0.036	-0.0189	-0.0034	-0.0537	0.004	-0.0524	-0.0122	-0.115	-0.133	-0.0493	-0.0438	-0.0439	-0.0651	-0.095
NC1(C(=O)N[C@@H](CCO)c2ccc(Cl)cc2)CCN(c2ncnc3[nH]ccc23)CC1 [Capivasertib] + Cn1cnc2c(F)c(Nc3ccc(Br)cc3Cl)c(C(=O)NOCCO)cc21 [Selumetinib] (first compound max 10 µM, 7x7, partner max 10 µM)	0.615	0.469	0.691	0.69	0.582	0.0408	0.0089	-0.0292	0.0151	0.0032	0.0729	0.0363	0.0993	0.0158	0.0427	0.0583	0.021	0.156	-0.133	-0.0031
COc1nnc2ccc(N3CCC(c4ccc(OCCN5CCN(C)C(=O)[C@H]5C)cc4)CC3)nn12 [AZD5153] + CCN(CCO)CCCOc1ccc2c(Nc3cc(CC(=O)Nc4cccc(F)c4)[nH]n3)ncnc2c1 [AZD2811] (first compound max 1 µM, 7x7, partner max 1 µM)	0.819	0.616	0.572	0.545	0.5	0.0004	-0.0499	-0.0415	0.0728	-0.0457	0.0017	-0.0508	-0.0804	0.102	-0.012	-0.0004	-0.06	0.0191	-0.148	-0.0479
COc1cccc(OCCCN)c1-c1cc(Nc2cnc(C#N)cn2)n[nH]1 [Prexasertib] + CCc1c2c(nc3ccc(O)cc13)-c1cc3c(c(=O)n1C2)COC(=O)[C@]3(O)CC [SN-38] (first compound max 1 µM, 7x7, partner max 0.3 µM)	0.999	0.998	0.813	0.89	1	0.0292	-0.0246	0.0266	0.0333	0.0837	0.0365	-0.0568	0.055	0.0576	-0.0158	0.0186	-0.153	0.0227	-0.0215	-0.0138
NC1(C(=O)N[C@@H](CCO)c2ccc(Cl)cc2)CCN(c2ncnc3[nH]ccc23)CC1 [Capivasertib] + CC(=O)c1c(C)c2cnc(Nc3ccc(N4CCNCC4)cn3)nc2n(C2CCCC2)c1=O [Palbociclib] (first compound max 10 µM, 7x7, partner max 10 µM)	0.575	0.271	0.588	0.455	0.216	0.0237	-0.0211	0.0103	0.0129	-0.0661	0.0157	-0.0345	0.0585	0.0059	0.0236	-0.0026	0.0121	-0.0739	-0.0377	-0.0171
Cc1c2c(nn1C)CSCc1cc(n(C)n1)CSc1cc(c3ccccc3c1)OCCCc1c(C(=O)O)n(C)c3c-2c(Cl)ccc13 [AZD5991] + CN(C)CCCOc1ccc(-c2ccc3ncc4c(c3c2)n(C2CCOCC2)c(=O)n4C)cn1 [AZD0156] (first compound max 1 µM, 7x7, partner max 1 µM)	0.268	0.438	0.358	0.251	0.985	0.0339	0.0142	-0.0135	0.0313	-0.0266	-0.0332	-0.0305	-0.0251	0.0023	0.0298	-0.01	-0.0946	0.0053	-0.0036	-0.0027
Cn1cnc2c(F)c(Nc3ccc(Br)cc3Cl)c(C(=O)NOCCO)cc21 [Selumetinib] + C[C@@H]1COCCN1C2=NC(=NC(=C2)C3(CC3)[S@](=N)(=O)C)C4=C5C=CNC5=NC=C4 [AZD6738] (first compound max 10 µM, 7x7, partner max 10 µM)	0.806	0.648	0.579	0.671	0.951	-0.0398	-0.012	-0.0661	0.0038	0.0113	-0.0031	0.0069	-0.0438	0.0348	-0.0387	0.0709	-0.0605	0.0085	-0.0496	0.0119
Cn1cnc2c(F)c(Nc3ccc(Br)cc3Cl)c(C(=O)NOCCO)cc21 [Selumetinib] + CCN(CCO)CCCOc1ccc2c(Nc3cc(CC(=O)Nc4cccc(F)c4)[nH]n3)ncnc2c1 [AZD2811] (first compound max 10 µM, 7x7, partner max 1 µM)	0.471	0.658	0.478	0.507	0.888	-0.0213	-0.0274	-0.0094	-0.0501	-0.0561	0	-0.0067	0.0685	-0.0073	-0.0369	0.0199	-0.0705	0.306	-0.059	-0.0388
NC1(C(=O)N[C@@H](CCO)c2ccc(Cl)cc2)CCN(c2ncnc3[nH]ccc23)CC1 [Capivasertib] + CCN(CCO)CCCOc1ccc2c(Nc3cc(CC(=O)Nc4cccc(F)c4)[nH]n3)ncnc2c1 [AZD2811] (first compound max 10 µM, 7x7, partner max 1 µM)	0.299	0.703	0.403	0.401	0.532	-0.0737	-0.0264	-0.0551	0.0416	-0.0411	-0.0275	-0.0543	-0.0114	-0.043	0.002	-0.0179	0.0737	-0.0244	-0.015	0.0076
CC(=O)c1c(C)c2cnc(Nc3ccc(N4CCNCC4)cn3)nc2n(C2CCCC2)c1=O [Palbociclib] + Cc1c2c(nn1C)CSCc1cc(n(C)n1)CSc1cc(c3ccccc3c1)OCCCc1c(C(=O)O)n(C)c3c-2c(Cl)ccc13 [AZD5991] (first compound max 10 µM, 7x7, partner max 1 µM)	0.538	0.453	0.299	0.389	0.998	-0.0142	-0.0318	0.0064	-0.0089	-0.0225	-0.0082	-0.0486	-0.0131	0.0096	-0.0073	-0.0376	0.0284	-0.0451	-0.0782	-0.0298
Cc1c2c(nn1C)CSCc1cc(n(C)n1)CSc1cc(c3ccccc3c1)OCCCc1c(C(=O)O)n(C)c3c-2c(Cl)ccc13 [AZD5991] + Cc1cc2ncnn2cc1Nc1ncc2c(n1)n(C1CCOCC1)c(=O)n2C [AZD7648] (first compound max 1 µM, 7x7, partner max 10 µM)	0.286	0.471	0.319	0.256	1	-0.0321	-0.0078	-0.0144	0.0284	0.0021	-0.0115	-0.0498	-0.0172	-0.0159	-0.0475	-0.0378	-0.0197	-0.011	-0.0036	-0.0556
NC1(C(=O)N[C@@H](CCO)c2ccc(Cl)cc2)CCN(c2ncnc3[nH]ccc23)CC1 [Capivasertib] + C[C@@H]1COCCN1C2=NC(=NC(=C2)C3(CC3)[S@](=N)(=O)C)C4=C5C=CNC5=NC=C4 [AZD6738] (first compound max 10 µM, 7x7, partner max 10 µM)	0.829	0.804	0.582	0.742	0.954	-0.0558	-0.0308	-0.027	-0.0208	-0.0926	-0.005	-0.0488	-0.0137	-0.0034	-0.0202	0.0058	-0.011	-0.0076	-0.128	-0.0657
COc1nnc2ccc(N3CCC(c4ccc(OCCN5CCN(C)C(=O)[C@H]5C)cc4)CC3)nn12 [AZD5153] + Cc1c2c(nn1C)CSCc1cc(n(C)n1)CSc1cc(c3ccccc3c1)OCCCc1c(C(=O)O)n(C)c3c-2c(Cl)ccc13 [AZD5991] (first compound max 1 µM, 7x7, partner max 1 µM)	0.823	0.699	0.495	0.496	1	-0.0043	-0.0191	0.0112	0.0403	0.0151	0.0069	0.0081	-0.0459	0.0101	0.0287	-0.0249	0.111	0.002	-0.0135	-0.018
